This experiment has as its system Mus musculus. In words: Tested for inhibitory activity against CT strain of Trypanosoma rhodesiense infected mice after administration at 106 mg/kg; Not active. It counts as functional, organism-based. More on the design: dose 106 mg/kg.

As for `COc1ccc(CC(N)C(=O)NC2C(C)OC(n3cnc4c(N(C)C)ncnc43)C2O)cc1` (stereo unspecified), the IC50 entry is recorded as “Not Active”.

For the origin of these results see ChEMBL document CHEMBL1121769, “5'Chloropuromycin. Inhibition of protein synthesis and antitrypanosomal activity” (J Med Chem, 1981).
